In series [1] the test system is HCV replicon in human hepatoma Huh-7 cell line. Put plainly: Anti-HCV replicon assay (EC50, luciferase readout). Particulars: Hepatitis C virus, Huh-7, 72 h, read-out: EC50 (50% effective concentration). It counts as cell-based. The procedure: (§1) The anti HCV activity of the quinazoline derivatives of this invention was tested in a human hepatoma Huh-7 cell line harbouring a HCV replicon. The assay comprised the following steps:
(§2) Step 1: compound preparation and serial dilution
(§3) • 1. for water soluble quinazoline derivatives, a volume of 500 μL of solution in cell media (DMEM, 10% FBS, P/S, L-Glutamine) was prepared with a concentration being twice the concentration of the starting final serial dilution concentration. A volume of 150 μL of the solution was added to the pre-specified wells in column 1 of a 96-well cell culture plate (PerkinElmer, white plate, cat. #6005181, for EC50 assay; black plate, cat. #6005182 for CC50 assay). The rest of the plate, columns 2-12, was filled with 100 μL of cell media. The plate was then placed on a Precision 2000 Workstation to start the serial dilution. Compounds were diluted three times each step from column 1 to column 10. Column 11 was used as a blank control (no compound added). • 2. for quinazoline derivatives requiring DMSO to dissolve, serial dilution is performed in 50% DMSO in a 384-well plate. A solution containing a compound at 100-fold concentration of the starting final serial dilution concentration was prepared in 50% DMSO and added to the pre-specified wells in column 1 of a polypropylene 384-well plate. The plate was then placed on a Precision 2000 Workstation to start the serial dilution. After the serial dilution, a volume of 2 μL of the solution was transferred from the 384-well plate to a 96-well cell culture plate containing 100 μL of cell media on a Biomek FX Workstation. The DMSO concentration in the final assay condition was 0.5% after cells are added to the plate and the total volume in each well is brought to 200 μL. Step 2: to each well of the serial dilution plate prepared above, 100 μL of cell media containing 6000 suspended Huh-7 HCV replicon cells was added with a Multidrop workstation. The plates were incubated for 3 days at 37° C. with 5% CO2. Step 3: Detection: • a) for the EC50 assay, the media in a 96-well cell culture plate was aspirated with a Biotek EL405 plate-washer. A volume of 200 μL of a solution containing a 1:1 mixture of cell-lysis buffer (Promega, Luciferase Cell Culture Lysis 5× Reagent, cat. #E1531) and luciferase substrate solution (Promega, Luciferase Assay, cat.# E4550) was added to each well of the plate with Multidrop. The plate was incubated for 30 minutes at room temperature before the luminescence signal was measured with a TopCount plate-reader. • b) for the CC50 assay, a volume of 100 μL of pre-mixed CeliTiter-Glo (Promega, cat.# G7572) solution is added directly to the cell culture in each well of the plate and the luminescence signal is measured with a TopCount plate-reader after 10 minutes of incubation at room temperature.
(§4) Results in the table below are expressed by the following data: • the 50% cytostatic concentration (CC50), i.e. the concentration that results in 50% inhibition of cell growth, and • the 50% effective concentration (EC50), i.e. the concentration that protects 50% of the cell monolayer from virus-induced cytopathic effect.
Background: A replicon is a self-replicating genome or part of one, used to study replication in cells.

Series [2] is described as follows: CC50 assay (CellTiter-Glo) in Huh-7 HCV replicon cells. It counts as cell-based, human. Particulars: human, 3 days incubation, CellTiter-Glo luminescence, read-out: CC50 (50% cytostatic concentration). The procedure: as §1, §2, §3, §4
For orientation: Cellular ATP, detected with luciferase, serves as a proxy for viable cell number.

For the next series, the system named is Huh-7 HCV replicon cells. The description is as above. Format: cell-based, human. As to conditions: 3 days incubation, CellTiter-Glo luminescence, read-out: CC50 (50% cytostatic concentration). The procedure:
as §1, §2, §3, §4

pEC50: −log10 of the molar value.

In the case of `NS(=O)(=O)c1ccc(CNc2nc(NCC(F)(F)F)c3cc(-c4ccc(C(=O)NC5CC5)cc4)ccc3n2)cc1` [Example 51, N-Cyclopropyl-4-[2-(4-sulfamoyl-benzylamino)-4-(2,2,2-trifluoroethylamino)-quinazolin-6-yl]-benzamide], in series [1], the pEC50 is > 6.52. The CC50 at 3 days in series [2] is > 20 µM.
`CN(C)c1ncnc2ccc(-c3ccc(F)cc3)cc12` [Example 45, 4-(N,N-dimethylamino)-6-(4-fluorophenyl)-quinazoline]: the pEC50 in series [1] was 5.00 to 6.00. Moreover, the CC50 at 3 days in series [2] was > 20 µM.
The like results for `CC(=O)Nc1ccc(-c2ccc3nc(N)nc(N4CCOCC4)c3c2)cc1` [Example 30, 2-amino-6-(4-acetamidophenyl)-4-(N-morpholino)quinazoline] were, in that order, 5.00 to 6.00 and 10 to 20 µM.
As to `Cn1ccc(Nc2nc(NC3CC3)c3cc(-c4ccc(F)cc4)ccc3n2)n1` [Example 54, N4-cyclopropyl-6-(4-fluoro-phenyl)-N2-(1-methyl-1H-pyrazol-3-yl)-quinazoline-2,4-diamine], the pEC50 in series [1] is > 6.52. Further, in series [2], the CC50 at 3 days was < 10 µM.
Taken in the same sequence, the figures for `CCCNc1ncnc2ccc(-c3ccc(F)cc3)cc12` [Example 43, 4-(N-propylamino)-6-(4-fluorophenyl)-quinazoline] were 5.00 to 6.00 and > 20 µM.
Taken in the same sequence, the figures for `Nc1nc(Nc2ccccc2)c2cc(-c3ccc(F)cc3)ccc2n1` [Example 48, 2-amino-6-(4-fluorophenyl)-4-(N-anilino)-quinazoline] were 6.00 to 6.52 and < 10 µM.
As for `Fc1ccc(-c2ccc3ncnc(NC4CC4)c3c2)cc1` [Example 47, 4-(N-cyclopropylamino)-6-(4-fluorophenyl)-quinazoline], the pEC50 in series [1] is 5.00 to 6.00. Moreover, the CC50 at 3 days in series [2] is > 20 µM.
As for `CC(=O)Nc1ccc(-c2ccc3nc(N)nc(N4CCCCC4)c3c2)cc1` [Example 31, 2-amino-6-(4-acetamidophenyl)-4-(N-piperidino)quinazoline], in series [1], the pEC50 was 5.00 to 6.00. Besides, the CC50 at 3 days in series [2] lay within 10 to 20 µM.
As to `CC(=O)Nc1ccc(-c2ccc3nc(N)nc(N4CCN(C)CC4)c3c2)cc1` [Example 34, 2-amino-6-(4-acetamidophenyl)-4-(N-methylpiperazino)quinazoline], in series [1], the pEC50 was 5.00 to 6.00. Moreover, in series [2], the CC50 at 3 days lay within 10 to 20 µM.
In the case of `CC(=O)Nc1ccc(-c2ccc3nc(N)nc(N4CCN(C(C)=O)CC4)c3c2)cc1` [Example 32, 2-amino-6-(4-acetamidophenyl)-4-(N-acetylpiperazino)quinazoline], the pEC50 in series [1] was 5.00 to 6.00. Further, the CC50 at 3 days in series [2] is > 20 µM.
Taken in the same sequence, the figures for `COc1ccc(-c2ccc3nc(N)nc(N4CCOCC4)c3c2)cc1OC` [Example 14, 2-amino-6-(3,4-dimethoxyphenyl)-4-(N-morpholino)quinazoline] were > 6.52 and < 10 µM.
As for `NS(=O)(=O)c1ccc(CNc2nc(NCC(F)(F)F)c3cc(-c4ccc(F)cc4)ccc3n2)cc1` [Example 52, 4-{[6-(4-Fluoro-phenyl)-4-(2,2,2-trifluoro-ethylamino)quinazolin-2-ylamino]-methyl}-benzenesulfonamide], the pEC50 in series [1] is > 6.52. Besides, in series [2], the CC50 at 3 days was < 10 µM.
Consider `Nc1nc(N2CCOCC2)c2cc(-c3ccc(Cl)cc3)ccc2n1` [Example 27, 2-amino-6-(4-chlorophenyl)-4-(N-morpholino)-quinazoline], for which the pEC50 in series [1] was 6.00 to 6.52. For the same molecule, in series [2], the CC50 at 3 days lay within 10 to 20 µM.
With `COCCNc1nc(N)nc2ccc(-c3ccc(C(=O)NC4CC4)cc3)cc12` [Example 56, 4-[2-Amino-4-(2-methoxy-ethylamino)-quinazolin-6-yl]-N cyclopropyl-benzamide], the CC50 in the series with Huh-7 HCV replicon cells was > 20 µM.
Consider `Nc1nc(N2CCOCC2)c2cc(-c3ccc(F)cc3)ccc2n1` [Example 28, 2-amino-6-(4-fluorophenyl)-4-(N-morpholino)-quinazoline], for which, in series [1], the pEC50 is 6.00 to 6.52. Also, the CC50 at 3 days in series [2] was < 10 µM.
As to `Nc1ncnc2ccc(-c3ccc(F)cc3)cc12` [Example 39, 4-amino-6-(4-fluorophenyl)-quinazoline], the pEC50 in series [1] is 5.00 to 6.00. Also, in series [2], the CC50 at 3 days was > 20 µM.
On to `COc1ccc(-c2ccc3nc(N)nc(Nc4cccc(Br)c4)c3c2)cc1OC` [Example 16, 2-amino-6-(3,4-dimethoxyphenyl)-4-[N-(3-bromo)-anilino]-quinazoline], for which, in series [1], the pEC50 was > 6.52. The CC50 at 3 days in series [2] is > 20 µM.
Turning to `Fc1ccc(-c2ccc3ncnc(N4CCOCC4)c3c2)cc1` [Example 37, 6-(4-fluorophenyl)-4-(N-morpholino)-quinazoline], the pEC50 in series [1] is 5.00 to 6.00. Further, the CC50 at 3 days in series [2] was > 20 µM.

The values are drawn from patent US9259426B2, “4,6-di- and 2,4,6-trisubstituted quinazoline derivatives useful for treating viral infections” (Gilead Sciences, Inc., priority 2006, dated 2016).
